From patent US8143382B2, “Pyrazole disazo dye and ink containing the dye” (Mitsubishi Chemical Corporation, priority 2007, dated 2012)

Assays:
[1] = Solubility of the dye in n-decane (saturated solution, 25° C., ordinary pressure); assay type: physicochemical; details: for Solubility compared with the comparative compound: from Table 1; for [Molar extinction coefficient at absorption maximum wavelength] × [molar concentration of saturated solution]: saturated solution at 25° C.; for Solubility (decane): saturated solution, 25° C., ordinary pressure, 0.1-μm filter
Method: (§1) The dye was added to n-decane, and this mixture was subjected to an ultrasonic treatment at 30° C. and ordinary pressure. When the dye completely dissolved, an additional amount of the dye was added so that the dye partly remained undissolved. The mixture thus treated was allowed to stand at room temperature (25° C.) for 12 hours and then subjected to centrifugal filtration with a 0.1-μm filter to obtain a saturated solution of the dye. This solution was diluted to an appropriate concentration and examined for absorption spectrum.
(§2) From values of absorption maximum wavelength in the wavelength range of 350-800 nm, gram extinction coefficient, and molar extinction coefficient which had been determined beforehand at an appropriate concentration and from the dilution ratio and the absorption spectrum of the diluted solution, the solubility (% by weight) and the product of the molar extinction coefficient at the absorption maximum wavelength and the molar concentration of the saturated solution were calculated.

[2] = Absorption spectrum and colour of the n-decane solution of the dye; assay type: physicochemical; details: for Gram extinction coefficient: decane, at the absorption maximum wavelength; for Color of solution / Absorption maximum wavelength: n-decane solution; for Absorption maximum wavelength: wavelength range 350-800 nm
Method: as §1, §2

SMILES | Solubility compared with the comparative compound [1] | [Molar extinction coefficient at absorption maximum wavelength] × [molar concentration of saturated solution] [1] [cm⁻¹] | Solubility (decane) [1] [wt %] | Gram extinction coefficient [2] [cm^2g^−1] | Color of solution [2] | Absorption maximum wavelength [2] [nm]
CCCCc1nn(C(C)(C)C)c(O)c1N=Nc1ccc(N=Nc2ccccc2)cc1 [1-1] | higher solubility than the comparative compound | 1900 | 4.2 | 62000 | yellow | 417
CCCCc1ccc(N=Nc2ccc(N=Nc3c(CCCC)nn(C(C)(C)C)c3O)cc2)cc1 [1-2] | higher solubility than the comparative compound | 13000 | 30 | 61000 | yellow | 421
CCc1nn(C(C)(C)C)c(O)c1N=Nc1ccc(N=Nc2ccccc2)cc1 [1-3] | higher solubility than the comparative compound | 1400 | 3.1 | 69000 | yellow | 415
Cc1nn(-c2ccccc2)c(O)c1N=Nc1ccc(N=Nc2ccccc2)cc1 [compound 1, reference compound] | – | 10 | 0.014 | 97000 | almost no | 416
